Laboratory results: US8313766B2, “Oral antidepressant formulation with reduced excipient load” (priority 2010, dated 2012)
Values after ≈ are worked out from the molar mass of the structure shown.

How the values were obtained:
[1] = CX-157 solubility in candidate solvents, test tube method; assay type: physicochemical; conditions: organic solvent or mixture, thermodynamic from solid, CX-157 Form A
Method: Ethanol, acetone and methylene chloride were selected and tested as candidate solvents. CX-157 solubility in the solvent was performed using a test tube method. A specific amount of CX-157 (Form A: disclosed in U.S. Pat. Pub. No. 2008/0009542 herein incorporated by reference in it entirety) was added into 1 mL test solvent and the sample was agitated vigorously by a Beadbeater (BB). If CX-157 was completely soluble in 1 mL of test solvent, additional CX-157 was added until excess solid was present. The solubility (mg/mL) of CX-157 was calculated by the amount (mass) of CX-157 added to the test solvent (1 mL). Acetone had the highest solubility of the solvents tested with a solubility of from about 60 mg/mL to about 80 mg/mL at room temperature.

[2] = Solubility of CX-157 in water (descriptive statement); assay type: physicochemical
[3] = human plasma, oral dose of 200 mg in a capsule with food; cited from earlier work

SMILES | solubility ([1]; solvent acetone, at room temperature) | solubility ([1]; solvent ethanol, at 60° C.) | solubility ([1]; solvent methylene chloride, at room temperature) | solubility in water [2] | Tmax [3] | time after dosing at which non-detectable levels observed [3]
O=S1(=O)c2ccc(F)cc2Oc2cc(OCC(F)(F)F)ccc21 [CX-157, 3-fluoro-7-(2,2,2-trifluoroethoxy)phenoxathiin 10,10-dioxide] | 60 to 80 mg/mL (≈ 172 to 230 mM) | < 10 mg/mL | < 20 mg/mL | only sparing solubility | – | –
NCCc1ccc(O)cc1 [tyramine] | – | – | – | – | ≤ 1.25 h | 3 to 4 h
